“Also recorded” adds a separate entry of the source.

For one series, the system named is salvage pathway. The series can be described thus: [3H]-hypoxanthine isotope tracing, salvage purine biosynthesis. It is filed as cell-based. Particulars: cells with endogenous ARL13B; listed as temozolomide. As for the experimental part:
(§1) FIG. 4A-4E. IMPDH2-ARL13B interaction during TMZ therapy influences purine biosynthesis. A) Schematic diagram of purine biosynthesis. Isotope tracing analysis performed with ^14C glycine for de novo and ^3H hypoxanthine for salvage pathway. […] D)^14C glycine incorporation via de novo synthesis of the DNA and RNA with or without TMZ therapy in the presence and absence of ARL13B. U251 GBM cells were pulsed for 6 h with ^14C glycine, DNA and RNA were isolated, and ^14C incorporation was measured by […]. E) ^3H hypoxanthine incorporation via salvage pathway.
2.5. The ARL13B-IMPDH2 interaction during TMZ therapy alters the path to purine biosynthesis: IMPDH controls the gateway to purine nucleotides, by analyzing the rate-limiting reaction of de novo GTP biosynthesis at the inosine monophosphate (IMP) metabolic branch point^36 (FIG. 4A). This critical reaction appears to be present in every organism. Alternatively, purine bases, released by hydrolytic degradation of nucleic acids and nucleotides, can be salvaged and recycled. This is an energy-saving pathway for purine biosynthesis, and its inefficiency can result in many pathological conditions including Lesch-Nyhan syndrome^37. In cancer, rapid cell division results in a high demand for purine nucleotides that generally cannot be sustained by salvage pathways, which may explain the importance of IMPDH in cancer^14, 38. […]

Another series relates to de novo pathway. The experiment in a line: [14C]-glycine isotope tracing, de novo purine biosynthesis. It is filed as cell-based. Conditions: for de novo pathway activity during TMZ therapy: cells with endogenous ARL13B. As for the experimental part:
as §1
2.5. The ARL13B-IMPDH2 interaction during TMZ therapy alters the path to purine biosynthesis: IMPDH controls the gateway to purine nucleotides, by analyzing the rate-limiting reaction of de novo GTP biosynthesis at the inosine monophosphate (IMP) metabolic branch point^36 (FIG. 4A). This critical reaction appears to be present in every organism. Alternatively, purine bases, released by hydrolytic degradation of nucleic acids and nucleotides, can be salvaged and recycled. This is an energy-saving pathway for purine biosynthesis, and its inefficiency can result in many pathological conditions including Lesch-Nyhan syndrome^37. In cancer, rapid cell division results in a high demand for purine nucleotides that generally cannot be sustained by salvage pathways, which may explain the importance of IMPDH in cancer^14, 38. This information, combined with our finding of a direct interaction between ARL13B and IMPDH2 during TMZ therapy, allows us to postulate that such an interaction may be playing a role in regulation of purine biosynthesis pathway. To investigate further, we first performed [^14C]-glycine (de novo) and [^3H]-hypoxanthine (salvage) pulse-chase study during therapy, which allowed us to measure the activity of specific purine biosynthesis pathways^39 (FIG. 4A). […] Moreover, removal or ARL13B enhanced the salvage activity about 5-fold (FIG. 4E, p<0.0005). Based on this, we conclude that ARL13B may act as a negative regulator for the salvage pathway and is play a role in therapy-induced switch of the purine biosynthesis.

Another series relates to IMPDH2. The series can be described thus: IMPDH2 enzymatic activity, formazin reduction assay. It is filed as biochemical. Conditions: over 8 days of TMZ exposure (p<0.001). From the text: (§2) Glioblastoma, a universally lethal primary brain tumor, harnesses cellular plasticity to drive therapeutic adaptation. Critical factors in developing this plasticity are histone modifiers such as Polycomb Repressor Complex 2 protein EZH2. […] Concurrently, we observed an increase in H3K27ac at the transcription start site of ARL13B as well as a lack of H3K27 tri-methylation, EZH2's canonical histone mark. Based on this we hypothesize that EZH2 could be non-canonically regulating ARL13B to allow for cellular plasticity and ultimately drive therapeutic adaptation. […] Searching for a mechanism behind this survival benefit, we preformed mass spectrometry on an ARL13B pulldown in a patient derived xenograft line during TMZ therapy and identified inosine monophosphate dehydrogenase 2 (IMPDH2), the rate-limiting enzyme in de-novo guanine nucleotide biosynthesis, as a significant binding partner of ARL13B during TMZ chemotherapy (p-value<0.0001). Probing this novel interaction further we examined the de-novo and salvage purine biosynthesis pathways using radiolabeled carbon tracing experiments. […] This synthesis shift forces cells to uptake and incorporate purines that have been alkylated by TMZ therapy which increases DNA double strand breaks and ultimately impairs therapeutic adaptation.

The subject of series [1] is ARL13B knockdown PDX GBM (GBM5, GBM6). The experiment in a line: Intracranial ARL13B knockdown PDX xenografts treated with TMZ, endpoint survival. It is filed as in vivo, nu/nu mice. Conditions: TMZ 2.5 mg/kg for 5 days. As for the experimental part: (§3) FIG. 5A-5D. Removal of ARL13B sensitizes GBM to TMZ therapy. […] B) Quantitative measure of H2X foci of different conditions counted in 100 cells. C) and D) shRNA mediated knockdown of ARL13B PDX lines were implanted in the nu/nu mice intracranially. After tumor establishment (7 days post implantation measured by BLI) animals were treated with suboptimal dose of TMZ (2.5 mg/kg) for 5 consecutive days. Animals were monitored for endpoint survival. C) GBMS PDX which is a mesenchymal subtype and D) GBM6, a classical subtype.
2.6. ARL13B KD enhances the therapeutic efficacy of TMZ both in vitro and in vivo: The monofunctional DNA-alkylating agent TMZ is a commonly used chemotherapeutic drug and the gold standard of treatment for GBM. Although the activity of the DNA repair enzyme O6-methylguanine-DNA methyltransferase (MGMT) has been identified as the critical modulator to determine the GBM sensitivity to TMZ, all GBMs, even those with MGMT inactivation, eventually stop responding to TMZ. This begs question whether an alternative mechanism of resistance may be involved in GBM. The anti-GBM activity of TMZ is predominately provoked by O6-methylguanine-DNA adducts. […] After tumor engraftment animals were treated with vehicle control or TMZ (2.5 mg/kg) for 5 consecutive days and animals were monitored by endpoint survival. […]

Series [2] concerns ARL13B knocked out GBM lines. The series can be described thus: DNA damage by H2X foci in ARL13B knockout/knockdown GBM cells treated with TMZ. It is filed as cell-based. Particulars: ARL13B knockout/knockdown cells vs control cells, both exposed to TMZ. The method, then: as §3
Creation of this alkylated purine causes a base pair mismatch in DNA (G-T) which results in DNA damage and cell cycle arrest and apoptosis (PMID: 15322239). Because of the nature of temozolomide chemotherapy-induced DNA damage, we chose to examine whether or not salvage pathway synthesis carried an implicit sensitivity to this alkylating chemotherapy. […] However, it did decrease the utilization of the salvage pathway by roughly 50%. Next, we subjected our ARL13B knockout cells to a standard dose of Temozolomide chemotherapy and checked whether they had more DNA double-stranded breaks by utilizing gamma h2ax foci counting. […]
2.6. […] After tumor engraftment animals were treated with vehicle control or TMZ (2.5 mg/kg) for 5 consecutive days and animals were monitored by endpoint survival. […]

The conditions of series [3]: patients; cited from earlier work.
In the next series the test system is Glioblastoma (GBM). Conditions: combined with radiotherapy after surgery; cited from earlier work.
The test system of the next series is orthotopic GBM43. The series can be described thus: Orthotopic PDX GBM mouse model, endpoint survival, IMPDH inhibitor with TMZ. Format: in vivo, Mice. Particulars: for survival benefits in vivo and vitro models: mouse. The method, then: (§4) FIG. 10A-10C. […] A) Pictorial representation of cell viability post therapy. B) Cell viability measured by trypan blue exclusion method. C) Mice with orthotopic GBM43 treated with vehicle DMSO, TMZ 2.5 mg/kg for 5 days, MMF (20 mg/kg for 4 days and in combination and monitored by endpoint survival.
as §2

A further series has as its system PDX GBM lines. The experiment in a line: Cell viability of PDX GBM lines post therapy, trypan blue exclusion. Format: cell-based. Particulars: CellCept combined with TMZ. As for the experimental part:
as §4

The conditions of series [4]: in vivo; cited from earlier work.
Another series concerns EAE and stroke. Particulars: cited from earlier work.
A further series concerns GBM flank model. The experiment in a line: GBM flank model, tumor growth, EZH2 inhibitor plus TMZ. It is filed as in vivo. From the text: FIG. 1A-1D. ARL13B is a downstream target for EZH2 non-canonical function. A) EZH2 expression is elevated during (day 3-D3) and post (D18) TMZ therapy. Therapy resistant glioma stem cell (CD133+) express high EZH2 post therapy (left). […] C) To examine the role of non-canonical function in TMZ resistance GBM43 (proneural) and GBM6 (Classical) PDX GBM treated with TMZ or TMZ+EZH2 inhibitor and subject to RNAseq analysis. […] We identified ARL13B as the top hit from this screen. D) shRNA mediated knockdown of EZH2 leads to downregulation of ARL13B.
2.1. […] One such epigenetic regulator is the Polycomb Repressor Complex 2 (PRC2), a critical family protein that is essential for maintaining the self-renewal ability of adult and embryonic stem cells^22, 23. This complex is involved in transcription silencing via chromatin compaction by catalyzing the methylation of the histone H3 at lysine 27. The catalytic subunit of the PRC2 complex, Enhancer Of Zeste 2 (EZH2), has been linked to aggressive progression of multiple cancers, including GBMs^24 25. The function of EZH2 is closely related to the cancer stem cell (CSC) phenotype, mesenchymal transition and radioresistance, which is associated with post-surgery relapse of GBM^24-26. However, its role in promoting chemoresistance properties in GBM is yet to be investigated. […]

The nature of series [5]: Blood-brain barrier crossing of the EZH2 inhibitor, orthotopic PDX model. It is filed as in vivo. From the text:
2.1. […] One such epigenetic regulator is the Polycomb Repressor Complex 2 (PRC2), a critical family protein that is essential for maintaining the self-renewal ability of adult and embryonic stem cells^22, 23. This complex is involved in transcription silencing via chromatin compaction by catalyzing the methylation of the histone H3 at lysine 27. The catalytic subunit of the PRC2 complex, Enhancer Of Zeste 2 (EZH2), has been linked to aggressive progression of multiple cancers, including GBMs^24 25. The function of EZH2 is closely related to the cancer stem cell (CSC) phenotype, mesenchymal transition and radioresistance, which is associated with post-surgery relapse of GBM^24-26. However, its role in promoting chemoresistance properties in GBM is yet to be investigated. To this end, we have examined the role of the EZH2-PRC2 complex in promoting TMZ resistance.

The subject of the next series is IMPDH. Particulars: cited from earlier work.

Turning to `Cn1nnc2c(C(N)=O)ncn2c1=O` [TMZ, 3,4-dihydro-3methyl-4-oxoimidazo[5,1-d]-1,2,3,5-tetrazine-8-carboxamide], the “decrease of salvage pathway activity during TMZ therapy” value in the series with salvage pathway is recorded as “roughly 50%”. In addition, the “decrease of de novo pathway usage in a TMZ specific manner” value in the series on de novo pathway (ARL13B knockdown / removal) is “about 50%”. In addition, the “de novo pathway activity in a TMZ-specific manner” value with de novo pathway (ARL13B knocked-out cells) is reported as “inhibited in a TMZ-specific manner; also recorded: reduced significantly in a TMZ-specific manner”. Moreover, the “de novo pathway activity during TMZ therapy” value with de novo pathway was “remained unchanged; also recorded: did not alter the de novo synthesis pathway”; in the series on de novo pathway (listed as temozolomide), “did not statistically change”. Besides, in the series on IMPDH2, the IMPDH2 enzymatic activity result was “decrease in activity”. The “improvement in overall survival compared to control” value in series [1] (classical subtype GBM6, ARL13B KD) came out at 39%. Also, the “animals that did not develop any tumor” value in series [1] (mesenchymal subtype, ARL13B KO GBM) was determined as 80%. Also, the results for the “DNA damage / double-strand breaks (H2X foci)” value in series [2] and in [2] (listed as Temozolomide) were “robust increase in DNA double-strand breaks; also recorded: significantly elevated DNA damage” and “significantly more foci”, respectively. For the same compound, in [3], the “peak cerebral spinal fluid and serum concentrations” value was 50 µM. The “improvement of overall survival time” value in the series with Glioblastoma (GBM) was 4-6 months.
On to `COc1c(C)c2c(c(O)c1C/C=C(\C)CCC(=O)OCCN1CCOCC1)C(=O)OC2` [CellCept, mycophenolic mofetil], for which the “therapeutic efficacy of TMZ-based chemotherapy, animal model” value in the series on orthotopic GBM43 (CellCept combined with TMZ, PDX model (FIG. 10)) was “corporation between CellCept and TMZ; also recorded: significantly improved the therapeutic efficacy of TMZ-based anti-GBM chemotherapy”. Moreover, the “survival benefits in vivo and vitro models” value in the series with orthotopic GBM43 is “robust survival benefits”. Besides, the median survival entry with orthotopic GBM43 (orthotopic PDX mouse model, only when in combination with TMZ (p<0.01)) was “significantly extended median survival”. Besides, in the series with PDX GBM lines, the “sensitization to TMZ therapy in vitro” value was “sensitizes PDX GBM lines to TMZ therapy; also recorded: significantly improved the therapeutic efficacy of TMZ-based anti-GBM chemotherapy”. The “crossing of the blood-brain barrier (BBB)” value in series [4] is reported as “ability to cross the blood-brain barrier”. For the same compound, the “neuroprotection against inflammatory conditions” value in the series on EAE and stroke was “promoted neuroprotection”.
On to `CCCc1cc(C)[nH]c(=O)c1CNC(=O)c1cc(-c2ccc(N3CCN(C(C)C)CC3)nc2)cc2c1cnn2C(C)C` [EZH2 inhibitor], for which the “tumor growth / therapeutic efficacy of TMZ in flank model” value in the series with GBM flank model is on record as “can block the tumor growth; also recorded: significantly enhanced the therapeutic efficacy of TMZ”. The “crossing of the blood-brain barrier” value in [5] is on record as “failed to cross the blood-brain barrier”.
With `NC(=O)c1ncn([C@@H]2O[C@H](CO)[C@@H](O)[C@H]2O)c1O` [Mizoribine, mizoribine], in the series on orthotopic GBM43, the “survival benefits in vivo and vitro models” value is “robust survival benefits”.
Consider `CC[C@H](CC#N)OC(=O)N[C@@H](C)c1cccc(NC(=O)Nc2ccc(-c3cnco3)c(OC)c2)c1` [AVN944], for which, in the series on IMPDH, the “IMPDH activity as compared to CellCept” value is “enhanced IMPDH activity as compared to CellCept”.

(Values after patent US11786542B2, “Methods for enhancing cytotoxic cancer therapy through modulation of purine biosynthesis pathways” (NORTHWESTERN UNIVERSITY, priority 2019, dated 2023).)
